EC50 and Emax data for 27 compounds are collected here from patent US10526320B2, “Pyrrolidine derivatives as PPAR agonists” (GUANGDONG RAYNOVENT BIOTECH CO., LTD., priority 2016, dated 2020).

Molecules are shown by their SMILES. Where two headings read alike, the source gives them in different places.

In one test the target is T1, PPAR Alpha (Homo sapiens, UniProt Q07869).
T1 sequence (Q07869 1-468): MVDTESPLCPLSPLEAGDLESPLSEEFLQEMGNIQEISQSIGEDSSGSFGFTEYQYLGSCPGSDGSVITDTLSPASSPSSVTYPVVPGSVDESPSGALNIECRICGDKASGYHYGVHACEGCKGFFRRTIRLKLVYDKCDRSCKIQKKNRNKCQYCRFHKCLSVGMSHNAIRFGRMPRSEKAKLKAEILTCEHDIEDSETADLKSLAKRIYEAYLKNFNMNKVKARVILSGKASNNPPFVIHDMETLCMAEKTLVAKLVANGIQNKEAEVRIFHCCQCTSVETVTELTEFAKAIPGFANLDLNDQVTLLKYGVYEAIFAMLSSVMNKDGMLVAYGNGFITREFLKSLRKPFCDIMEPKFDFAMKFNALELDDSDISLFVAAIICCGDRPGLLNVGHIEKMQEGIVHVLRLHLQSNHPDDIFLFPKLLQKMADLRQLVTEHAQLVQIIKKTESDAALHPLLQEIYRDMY
The experiment in a line: PathHunter NHR protein interaction / nuclear translocation agonist test, PPAR Alpha. Format: cell-based. The following applies: for Emax: read-out: PPAR Alpha Maximum Activation Response %.

The target in the next test is T2, PPAR Delta (Homo sapiens, UniProt Q03181).
T2 sequence (Q03181 1-441): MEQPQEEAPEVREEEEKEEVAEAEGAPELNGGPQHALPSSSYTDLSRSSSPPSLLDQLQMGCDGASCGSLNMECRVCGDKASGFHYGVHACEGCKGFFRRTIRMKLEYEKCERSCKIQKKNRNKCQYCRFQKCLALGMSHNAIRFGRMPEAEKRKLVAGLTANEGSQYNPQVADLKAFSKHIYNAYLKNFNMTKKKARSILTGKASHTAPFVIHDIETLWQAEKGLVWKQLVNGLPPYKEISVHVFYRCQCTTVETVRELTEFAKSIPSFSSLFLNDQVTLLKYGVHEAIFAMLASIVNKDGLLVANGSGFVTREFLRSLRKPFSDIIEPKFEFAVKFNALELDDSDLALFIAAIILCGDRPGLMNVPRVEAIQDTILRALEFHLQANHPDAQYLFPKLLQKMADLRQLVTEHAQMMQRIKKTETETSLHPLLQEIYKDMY
Put plainly: PathHunter NHR protein interaction / nuclear translocation agonist test, PPAR Delta. The format is cell-based. The following applies: for Emax: read-out: PPAR Delta Maximum Activation Response %.

Setting [1] is: agonist mode, read-out: PPAR Alpha EC50.
The mark [2] stands for this setting: agonist mode, read-out: PPAR Delta EC50.
Setting [3] is: relative to known PPARδ agonist L-165,041 = 100%.

With `CSc1ccc(C(=O)[C@H]2CN(C(=O)Cc3ccc(Cl)cc3)C[C@@H]2c2cc(C)c(OC(C)(C)C(=O)O)c(C)c2)cc1` (racemic) [Compound 36], the EC50 is less than 100 nM on PPAR Alpha (setting [1]) and more than 250 nM on PPAR Delta (setting [2]). In addition, the figures for the Emax at PPAR Alpha and at PPAR Delta (setting [3]) were 80 to 100% and 50 to 80%, respectively.

For `CSc1ccc(C(=O)[C@H]2CN(C(=O)Nc3ccc(Cl)cc3)C[C@@H]2c2cc(C)c(OC(C)(C)C(=O)O)c(C)c2)cc1` (racemic) [Compound 37], the EC50 on PPAR Alpha (setting [1]) was less than 100 nM; on PPAR Delta (setting [2]), 200 to 250 nM. Also, the Emax at PPAR Alpha was 80 to 100%; on PPAR Delta, 50 to 80%.

Regarding `CSc1ccc(C(=O)[C@H]2CN(C(=O)Oc3cnn(C)c3)C[C@@H]2Cc2cc(C)c(OC(C)(C)C(=O)O)c(C)c2)cc1` (racemic) [Compound 48], the EC50 on PPAR Alpha (setting [1]) is less than 100 nM; at PPAR Delta (setting [2]) it was 100 to 150 nM. Further, the Emax at PPAR Alpha and on PPAR Delta was 50 to 80% throughout.

Consider `CSc1ccc(C(=O)[C@@H]2CN(C(C)=O)C[C@H]2CCc2cc(C)c(OC(C)(C)C(=O)O)c(C)c2)cc1` (racemic) [Compound 71], for which the EC50 on PPAR Alpha (setting [1]) is 200 to 250 nM; on PPAR Delta (setting [2]), 150 to 200 nM. The Emax on PPAR Alpha and on PPAR Delta was 80 to 100% in each case.

Take `CSc1ccc(C(=O)[C@H]2CN(C(=O)OCCC(C)C)C[C@@H]2CCc2cc(C)c(OC(C)(C)C(=O)O)c(C)c2)cc1` (racemic) [Compound 72]: the results for the EC50 at PPAR Alpha (setting [1]) and on PPAR Delta (setting [2]) were less than 100 nM and 100 to 150 nM, respectively. The Emax on PPAR Alpha and on PPAR Delta (setting [3]) was 80 to 100% in each case.

Regarding `CSc1ccc(C(=O)C2CN(C3COC3)C[C@@H]2CCc2cc(C)c(OC(C)(C)C(=O)O)c(C)c2)cc1` (mixture of isomers) [Compound 73], the results for the EC50 at PPAR Alpha (setting [1]) and on PPAR Delta (setting [2]) were 200 to 250 nM and more than 250 nM, respectively. The Emax at PPAR Alpha and on PPAR Delta (setting [3]) was 80 to 100% throughout.

Regarding `CSc1ccc(C(=O)C2CN(C(=O)OC(C)C)CC2c2cc(C)c(OC(C)(C)C(=O)O)c(C)c2)cc1` (single isomer, unassigned) [Compound 7], the EC50 at PPAR Alpha (setting [1]) and at PPAR Delta (setting [2]) was more than 250 nM in each case. Moreover, the Emax at PPAR Alpha and on PPAR Delta was 50 to 80% in each case.

Turning to `CSc1ccc(C(=O)C2CN(S(C)(=O)=O)CC2c2cc(C)c(OC(C)(C)C(=O)O)c(C)c2)cc1` (single isomer, unassigned) [Compound 18], the results for the EC50 at PPAR Alpha (setting [1]) and at PPAR Delta (setting [2]) were 200 to 250 nM and more than 250 nM, respectively. In addition, the Emax on PPAR Alpha lay within 80 to 100%; on PPAR Delta (setting [3]), 50 to 80%.

For `CSc1ccc(C(=O)C2CN(S(N)(=O)=O)CC2c2cc(C)c(OC(C)(C)C(=O)O)c(C)c2)cc1` (single isomer, unassigned) [Compound 19], the EC50 at PPAR Alpha (setting [1]) was 200 to 250 nM; at PPAR Delta (setting [2]), more than 250 nM. For the same compound, the Emax was in the range of 80 to 100% on PPAR Alpha and 50 to 80% on PPAR Delta (setting [3]).

In the case of `CSc1ccc(C(=O)C2CN(C(C)=O)CC2c2cc(C)c(OC(C)(C)C(=O)O)c(C)c2)cc1` (single isomer, unassigned) [Compound 21], the EC50 at PPAR Alpha (setting [1]) and at PPAR Delta (setting [2]) was more than 250 nM in each case. Further, the Emax lay in the range of 80 to 100% on PPAR Alpha and 50 to 80% at PPAR Delta.

Take `CSc1ccc(C(=O)C2CN(C(=O)Oc3ccc(Cl)cc3)CC2Cc2cc(C)c(OC(C)(C)C(=O)O)c(C)c2)cc1` (single isomer, unassigned) [Compound 27]: the EC50 at PPAR Alpha (setting [1]) and on PPAR Delta (setting [2]) was less than 100 nM throughout. Further, the Emax at PPAR Alpha fell in the range of 80 to 100%; at PPAR Delta, 50 to 80%.

Regarding `CSc1ccc(C(=O)C2CN(C(=O)Oc3ccc(F)cc3)CC2Cc2cc(C)c(OC(C)(C)C(=O)O)c(C)c2)cc1` (single isomer, unassigned) [Compound 28], the EC50 on PPAR Alpha (setting [1]) and at PPAR Delta (setting [2]) was less than 100 nM in each case. Moreover, the Emax at PPAR Alpha lay in the range of 80 to 100%; on PPAR Delta it was 50 to 80%.

Take `CSc1ccc(C(=O)C2CN(C(=O)Oc3ccc(Cl)cc3)CC2c2cccc(OC(C)(C)C(=O)O)c2)cc1` (single isomer, unassigned) [Compound 33]: the EC50 at PPAR Alpha (setting [1]) was 200 to 250 nM; on PPAR Delta (setting [2]), more than 250 nM. In addition, the Emax at PPAR Alpha was 80 to 100%; on PPAR Delta, 50 to 80%.

On to `CSc1ccc(C(=O)C2CN(C(=O)Oc3ccc(F)cc3)CC2c2cc(C)c(OC(C)(C)C(=O)O)c(C)c2)cc1` (single isomer, unassigned) [Compound 35], for which the figures for the EC50 at PPAR Alpha (setting [1]) and at PPAR Delta (setting [2]) were 200 to 250 nM and 150 to 200 nM, respectively. Besides, the Emax lay within 80 to 100% at PPAR Alpha and 50 to 80% at PPAR Delta.

Turning to `CSc1ccc(C(=O)C2CN(C(=O)Oc3cccc(Cl)c3)CC2c2cc(C)c(OC(C)(C)C(=O)O)c(C)c2)cc1` (single isomer, unassigned) [Compound 38], the EC50 at PPAR Alpha (setting [1]) is less than 100 nM; on PPAR Delta (setting [2]), 150 to 200 nM. The Emax at PPAR Alpha fell in the range of 80 to 100%.

Regarding `CSc1ccc(C(=O)C2CN(C(=O)Oc3ccc(C)cc3)CC2c2cc(C)c(OC(C)(C)C(=O)O)c(C)c2)cc1` (single isomer, unassigned) [Compound 39], the results for the EC50 at PPAR Alpha (setting [1]) and on PPAR Delta (setting [2]) were less than 100 nM and 100 to 150 nM, respectively. For the same compound, the Emax at PPAR Alpha and at PPAR Delta was 80 to 100% throughout.

In the case of `CSc1ccc(C(=O)[C@@H]2CN(C(=O)Oc3ccc(C(C)C)cc3)C[C@H]2c2cc(C)c(OC(C)(C)C(=O)O)c(C)c2)cc1` (single isomer, unassigned) [Compound 40], the EC50 at PPAR Alpha (setting [1]) is less than 100 nM; on PPAR Delta (setting [2]) it was 100 to 150 nM. Further, the Emax at PPAR Alpha and on PPAR Delta (setting [3]) was 80 to 100% throughout.

As for `CSc1ccc(C(=O)[C@@H]2CN(C(=O)Oc3ccc(Cl)cc3Cl)C[C@H]2c2cc(C)c(OC(C)(C)C(=O)O)c(C)c2)cc1` (single isomer, unassigned) [Compound 41], the EC50 at PPAR Alpha (setting [1]) and at PPAR Delta (setting [2]) was less than 100 nM each time. Moreover, the Emax at PPAR Alpha and at PPAR Delta (setting [3]) was 80 to 100% each time.

On to `CSc1ccc(C(=O)[C@@H]2CN(C(=O)Oc3ccc(Cl)cc3F)C[C@H]2c2cc(C)c(OC(C)(C)C(=O)O)c(C)c2)cc1` (single isomer, unassigned) [Compound 42], for which the EC50 on PPAR Alpha (setting [1]) and at PPAR Delta (setting [2]) was less than 100 nM in each case. Further, the Emax at PPAR Alpha and at PPAR Delta (setting [3]) was 80 to 100% in each case.

As to `CSc1ccc(C(=O)[C@@H]2CN(C(=O)Oc3ccc(Cl)c(Cl)c3)C[C@H]2c2cc(C)c(OC(C)(C)C(=O)O)c(C)c2)cc1` (single isomer, unassigned) [Compound 43], the EC50 on PPAR Alpha (setting [1]) and on PPAR Delta (setting [2]) was less than 100 nM throughout. In addition, the Emax on PPAR Alpha and on PPAR Delta (setting [3]) was 80 to 100% throughout.

`CSc1ccc(C(=O)[C@@H]2CN(C(=O)Oc3ccccc3)C[C@H]2CCc2cc(C)c(OC(C)(C)C(=O)O)c(C)c2)cc1` (single isomer, unassigned) [Compound 51]: the EC50 at PPAR Alpha (setting [1]) and at PPAR Delta (setting [2]) was less than 100 nM throughout. Further, at PPAR Delta, the Emax was in the range of 80 to 100%.

On to `CSc1ccc(C(=O)[C@@H]2CN(C(=O)Oc3ccccc3)C[C@H]2CCc2cc(C)c(OC(C)(C)C(=O)O)c(C)c2)cc1` (single isomer, unassigned) [Compound 52], for which the EC50 on PPAR Alpha (setting [1]) and on PPAR Delta (setting [2]) was less than 100 nM each time.

`CSc1ccc(C(=O)[C@H]2CN(C(=O)Oc3ccccc3)C[C@@H]2CCc2cc(C)c(OC(C)(C)C(=O)OC(C)C)c(C)c2)cc1` (single isomer, unassigned) [Compound 61]: the EC50 on PPAR Alpha (PPAR Alpha EC50 nM) and on PPAR Delta (PPAR Delta EC50 nM) was more than 250 nM in each case. In addition, the Emax at PPAR Alpha and on PPAR Delta was less than 50% each time.

As for `Cc1cc(CCC2CN(C(=O)Oc3ccccc3)CC2C(=O)c2ccccc2)cc(C)c1OC(C)(C)C(=O)O` (single isomer, unassigned) [Compound 62], the EC50 on PPAR Alpha (setting [1]) and at PPAR Delta (setting [2]) was 100 to 150 nM in each case. In addition, the Emax on PPAR Alpha and at PPAR Delta (setting [3]) was 80 to 100% in each case.

Take `CSc1ccc(C(=O)C2CN(C(=O)OC3CCCC3)CC2CCc2cc(C)c(OC(C)(C)C(=O)O)c(C)c2)cc1` (single isomer, unassigned) [Compound 74]: the figures for the EC50 at PPAR Alpha (setting [1]) and at PPAR Delta (setting [2]) were less than 100 nM and 100 to 150 nM, respectively. In addition, the Emax on PPAR Alpha and on PPAR Delta (setting [3]) was 80 to 100% each time.

On to `CSc1ccc(C(=O)[C@@H]2CN(S(C)(=O)=O)C[C@H]2CCc2cc(C)c(OC(C)(C)C(=O)O)c(C)c2)cc1` (single isomer, unassigned) [Compound 75], for which the EC50 at PPAR Alpha (setting [1]) was more than 250 nM; on PPAR Delta (setting [2]) it was 200 to 250 nM. Besides, the Emax at PPAR Alpha and at PPAR Delta (setting [3]) was 80 to 100% throughout.

For `CSc1ccc(C(=O)C2CN(C(=O)Oc3ccccc3)CC2Cc2ccc(OC(C)(C)C(=O)O)cc2F)cc1` (single isomer, unassigned) [Compound 83], the figures for the EC50 on PPAR Alpha (setting [1]) and on PPAR Delta (setting [2]) were 100 to 150 nM and 200 to 250 nM, respectively. In addition, the Emax at PPAR Alpha and at PPAR Delta (setting [3]) was 80 to 100% in each case.
